One molecule from patent US20220218781A1, “COMPOSITION FOR ENHANCEMENT OF BIOAVAILABILITY OF PHYTOCHEMICALS AND PROCESS FOR PREPARATION THEREOF” (OLENE LIFE SCIENCES PRIVATE LIMITED, priority 2019, published 2022) can be followed below.

A short description of this data set: Comparative self-dispersion study in water. In kind it is physicochemical. The settings on record: without mechanical stirring, test product vs. standard unformulated reference product. The procedure: A comparative self-dispersion study was carried out between the ‘Composition of Example 1 (Test product)’ and ‘Standard unformulated lutein extract (Reference product)’.
A comparative self-dispersion study was carried out between the ‘Composition of Example 13 (Test product)’ and ‘Standard unformulated Boswellia extract (Reference product)’.
A comparative self-dispersion study was carried out between the ‘Composition of Example 16 (Test product)’ and ‘Standard unformulated Pepper extract (Reference product)’.
A comparative self dispersion study was carried out between the ‘Composition of Example 22 (Test product)’ and ‘Standard unformulated Coenzyme Q10 Extract (Reference product)’.
A comparative self dispersion study was carried out between the ‘Composition of Example 25 (Test product)’ and ‘Standard unformulated Palmitoylethanolamide (Reference product)’. The dispersion profile is given in FIG. 7A (test product) and FIG. 7B (reference product).

On to `COC1=C(OC)C(=O)C(C/C=C(\C)CC/C=C(\C)CC/C=C(\C)CC/C=C(\C)CC/C=C(\C)CC/C=C(\C)CC/C=C(\C)CC/C=C(\C)CC/C=C(\C)CCC=C(C)C)=C(C)C1=O` [Coenzyme Q10], for which the self-dispersion profile entry is given as “non-dispersible”.
